According to ChEMBL document CHEMBL5108020, “Design and synthesis of novel benzimidazole derivatives as potential Pseudomonas aeruginosa anti-biofilm agents inhibiting LasR: Evidence from comprehensive molecular dynamics simulation and in vitro investigation” (Eur J Med Chem, 2022):
In brackets after ≈: the same amount, converted by molar mass. Activity calls are given as the source filed them. No cut-off for these calls is given here.

Tests used:
[1] = Cytotoxicity against human HDFa cells assessed as reduction in cell viability incubated for 24 hrs by MTT assay; format: toxicity, cell-based
[2] = Inhibition of quorum sensing system in Pseudomonas aeruginosa assessed as inhibition of rhamnolipid production at sub-MIC by spectrophotometric method
Pseudomonas aeruginosa [3] = assay: Antibacterial activity against Pseudomonas aeruginosa ATCC 27853 assessed as zone of growth inhibition incubated for 24 hrs by agar diffusion method; format: functional
Pseudomonas aeruginosa [4] = assay: Antibacterial activity against Pseudomonas aeruginosa assessed as inhibition of bacterial growth incubated for 24 hrs by CLSI broth microdilution method; format: functional; conditions: for MIC: Pseudomonas aeruginosa
[5] = Inhibition of quorum sensing system in Pseudomonas aeruginosa assessed as inhibition of biofilm production at sub-MIC incubated for 24 hrs by crystal violet staining based analysis
Bacillus subtilis = assay: Antibacterial activity against Bacillus subtilis ATCC 6633 assessed as inhibition of bacterial growth incubated for 24 hrs by agar diffusion method; format: functional, organism-based
[6] = Inhibition of quorum sensing system in Pseudomonas aeruginosa assessed as inhibition of pyocyanin production at sub-MIC by absorbance based analysis
Staphylococcus aureus = assay: Antibacterial activity against Staphylococcus aureus ATCC 43300 assessed as inhibition of bacterial growth incubated for 24 hrs by agar diffusion method; format: functional, organism-based
Klebsiella pneumoniae = assay: Antibacterial activity against Klebsiella pneumoniae ATCC 700603 assessed as inhibition of bacterial growth incubated for 24 hrs by agar diffusion method; format: functional, organism-based
Candida albicans = assay: Antifungal activity against Candida albicans ATCC 60193 assessed as inhibition of fungal growth incubated for 48 hrs by agar diffusion method; format: functional, organism-based
Escherichia coli = assay: Antibacterial activity against Escherichia coli ATCC 25922 assessed as inhibition of bacterial growth incubated for 24 hrs by agar diffusion method; format: functional, organism-based
[7] = Inhibition of quorum sensing system in Pseudomonas aeruginosa assessed as downregulation of rhlR gene expression at sub-MIC by fluorescence real time PCR analysis
[8] = Selectivity index, ratio of IC50 for human HDFa cells to MIC for antibacterial activity against Pseudomonas aeruginosa; format: toxicity; conditions: read-out: Selectivity Index
[9] = Inhibition of quorum sensing system in Pseudomonas aeruginosa assessed as downregulation of lasR gene expression at sub-MIC by fluorescence real time PCR analysis

SMILES	inhibition [2] [%]	MIC (Pseudomonas aeruginosa [4]) [µM]	inhibition [5] [%]	inhibition [6] [%]	inhibition [7] [%]	inhibition [9] [%]	IC50 at 24 h [1] [µg/mL]	inhibition zone (IZ) (Pseudomonas aeruginosa [3]) [mm]	SubMIC (Pseudomonas aeruginosa [4]) [µM]	Activity (Bacillus subtilis)	Activity (Staphylococcus aureus)	Activity (Klebsiella pneumoniae)	Activity (Candida albicans)	Activity (Escherichia coli)	selectivity ratio [8]
C/C(=C\C(=O)OCCCCCCCCC(=O)O)C[C@@H]1OC[C@H](C[C@@H]2O[C@H]2[C@@H](C)[C@H](C)O)[C@@H](O)[C@H]1O [MUPIROCIN]	–	–	–	–	–	–	161 (≈ 322 µM)	–	–	–	–	–	–	–	–
Cc1ccc2[nH]c(-c3ccc(OCC(=O)Nc4ccccc4)cc3)nc2c1	33	78.7 (≈ 28.1 µg/mL)	56.3	54.3	–	–	–	15	19.5	Active	–	–	–	–	–
COc1ccc(NC(=O)COc2ccc(-c3nc4ccccc4[nH]3)cc2)cc1	46.4	151 (≈ 56.2 µg/mL)	67.1	61.8	–	–	–	18	37.4	–	Active	–	–	–	–
O=C(COc1ccc(-c2nc3ccccc3[nH]2)cc1)Nc1ccccc1[N+](=O)[O-]	44.6	145 (≈ 56.2 µg/mL)	63.8	60.3	–	–	–	15	36	Active	–	–	–	–	–
O=C(COc1ccc(-c2nc3ccccc3[nH]2)cc1)Nc1ccc([N+](=O)[O-])cc1	35.2	145 (≈ 56.2 µg/mL)	63.6	57.6	–	–	–	17	36	–	–	–	–	–	–
c1ccc2[nH]c(-c3ccc(N4CCCCC4)cc3)nc2c1	49.6	203 (≈ 56.3 µg/mL)	67.3	63.6	–	–	–	19	50.4	–	Active	–	–	–	–
O=C(COc1ccc(-c2nc3ccccc3[nH]2)cc1)Nc1ccccc1	28.2	164 (≈ 56.2 µg/mL)	51.5	36.7	–	–	–	19	40.7	–	–	–	–	–	–
Cc1ccc(NC(=O)COc2ccc(-c3nc4ccccc4[nH]3)cc2)cc1	25.1	157 (≈ 56.2 µg/mL)	52.4	36.4	–	–	–	13	39.1	–	–	–	–	–	–
O=C(COc1ccc(-c2nc3ccccc3[nH]2)cc1)Nc1ccc(F)cc1	27.7	156 (≈ 56.2 µg/mL)	51.8	37	–	–	–	17	38.7	–	–	–	–	–	–
O=C(COc1ccc(-c2nc3ccccc3[nH]2)cc1)Nc1ccc(Cl)cc1	34.4	149 (≈ 56.2 µg/mL)	63.1	58	–	–	–	17	37	–	–	Active	Active	–	–
Cc1ccccc1NC(=O)COc1ccc(-c2nc3cc(Cl)ccc3[nH]2)cc1	3	71.7 (≈ 28.1 µg/mL)	29	6.5	–	–	–	16	17.8	–	–	Active	–	–	–
c1ccc2[nH]c(-c3ccc(-n4ccnc4)cc3)nc2c1	20.1	109 (≈ 28.3 µg/mL)	46.1	34	–	–	–	18	26.8	–	–	Active	–	–	–
Cc1ccccc1NC(=O)COc1ccc(-c2nc3ccccc3[nH]2)cc1	51.8	157 (≈ 56.2 µg/mL)	68.9	68	16.3	26	338 (≈ 946 µM)	16	39.1	Active	–	–	–	–	6.01
CN1CCN(c2ccc(-c3nc4ccccc4[nH]3)cc2)CC1	54	193 (≈ 56.4 µg/mL)	71.7	68.7	–	61.7	217 (≈ 742 µM)	20	48	–	Active	Active	Active	Active	3.86
c1ccc2[nH]c(-c3ccc(N4CCOCC4)cc3)nc2c1	35.7	201 (≈ 56.2 µg/mL)	60.5	55.2	–	–	–	18	50.1	–	–	Active	–	–	–
C[C@@H](O)[C@H]1C(=O)N2C(C(=O)O)=C(SCCNC=N)C[C@H]12 [IMIPENEM ANHYDROUS]	–	93.9 (≈ 28.1 µg/mL)	–	–	–	–	–	19	–	–	–	–	–	–	–
O=C(COc1ccc(-c2nc3cc(Cl)ccc3[nH]2)cc1)Nc1ccccc1	20.7	74.4 (≈ 28.1 µg/mL)	53.1	35.5	–	–	102 (≈ 270 µM)	15	18.5	–	–	–	–	–	3.63
CC[C@H]1OC(=O)[C@H](C)[C@@H](O[C@H]2C[C@@](C)(OC)[C@@H](O)[C@H](C)O2)[C@H](C)[C@@H](O[C@@H]2O[C@H](C)C[C@H](N(C)C)[C@H]2O)[C@](C)(O)C[C@@H](C)CN(C)[C@H](C)[C@@H](O)[C@]1(C)O [AZITHROMYCIN]	55.2	85.4 (≈ 64 µg/mL)	52.5	65	41.5	40.8	–	–	20.1	–	–	–	–	–	–

Continued by falling MIC (Pseudomonas aeruginosa [4]), values first:

inhibition [2] [%]	MIC (Pseudomonas aeruginosa [4]) [µM]	inhibition [5] [%]	inhibition [6] [%]	inhibition [7] [%]	inhibition [9] [%]	SMILES	IC50 at 24 h [1] [µg/mL]	inhibition zone (IZ) (Pseudomonas aeruginosa [3]) [mm]	SubMIC (Pseudomonas aeruginosa [4]) [µM]	Activity (Bacillus subtilis)	Activity (Staphylococcus aureus)	Activity (Klebsiella pneumoniae)	Activity (Candida albicans)	Activity (Escherichia coli)	selectivity ratio [8]
42.3	69.9 (≈ 28.1 µg/mL)	64.9	60	–	–	Cc1ccc2[nH]c(-c3ccc(OCC(=O)Nc4ccccc4[N+](=O)[O-])cc3)nc2c1	411 (≈ 1020 µM)	14	17.4	Active	–	–	–	–	14.6
15	69.9 (≈ 28.1 µg/mL)	44.1	33.7	–	–	Cc1ccc2[nH]c(-c3ccc(OCC(=O)Nc4ccc([N+](=O)[O-])cc4)cc3)nc2c1	–	15	17.4	Active	–	–	–	–	–
3.7	68.2 (≈ 28.1 µg/mL)	31	13.4	–	–	O=C(COc1ccc(-c2nc3cc(Cl)ccc3[nH]2)cc1)Nc1ccc(Cl)cc1	–	17	16.9	–	–	Active	–	Active	–
7	66.5 (≈ 28.1 µg/mL)	32.5	14.8	–	–	O=C(COc1ccc(-c2nc3cc(Cl)ccc3[nH]2)cc1)Nc1ccc([N+](=O)[O-])cc1	–	16	16.5	–	–	Active	–	–	–
20.4	66.5 (≈ 28.1 µg/mL)	51.8	35.8	–	–	O=C(COc1ccc(-c2nc3cc(Cl)ccc3[nH]2)cc1)Nc1ccccc1[N+](=O)[O-]	–	16	16.5	–	–	Active	–	–	–
13.6	57.7 (≈ 21.4 µg/mL)	39.5	31	–	–	Cc1ccc2[nH]c(-c3ccc(OCC(=O)Nc4ccccc4C)cc3)nc2c1	–	14	18.8	–	–	–	Active	–	–
37.8	57.7 (≈ 21.4 µg/mL)	64.9	60	–	–	Cc1ccc(NC(=O)COc2ccc(-c3nc4cc(C)ccc4[nH]3)cc2)cc1	–	16	18.8	–	–	–	–	Active	–
35.2	37.2 (≈ 14 µg/mL)	59.6	55.8	–	–	Cc1ccc2[nH]c(-c3ccc(OCC(=O)Nc4ccc(F)cc4)cc3)nc2c1	–	19	9.3	Active	–	–	–	–	–
12.6	36.1 (≈ 14 µg/mL)	36.7	29	–	–	COc1ccc(NC(=O)COc2ccc(-c3nc4cc(C)ccc4[nH]3)cc2)cc1	–	15	9	Active	–	–	–	Active	–
11.4	35.7 (≈ 14 µg/mL)	31.3	24.5	–	–	Cc1ccc(NC(=O)COc2ccc(-c3nc4cc(Cl)ccc4[nH]3)cc2)cc1	–	18	8.9	–	–	Active	–	–	–
29.6	35.7 (≈ 14 µg/mL)	55.7	38.2	–	–	Cc1ccc2[nH]c(-c3ccc(OCC(=O)Nc4ccc(Cl)cc4)cc3)nc2c1	–	19	8.9	Active	–	–	–	–	–
18.1	35.3 (≈ 14 µg/mL)	45	32.8	–	–	O=C(COc1ccc(-c2nc3cc(Cl)ccc3[nH]2)cc1)Nc1ccc(F)cc1	–	19	8.8	–	–	Active	Active	–	–
13.8	34.3 (≈ 14 µg/mL)	39.2	28.9	–	–	COc1ccc(NC(=O)COc2ccc(-c3nc4cc(Cl)ccc4[nH]3)cc2)cc1	–	17	8.5	Active	–	–	Active	–	–
